Read-outs that look alike come from different tables or passages of the source.

The record followed here is patent US20250034136A1 (Nimbus Wadjet, Inc., priority 2023, published 2025).

The target of assay [1] is WRN (BV08), human Werner helicase (Uniprot Q14191, amino acids 517-1235 with L1074F point mutation) (Homo sapiens (Human), UniProt Q14191, L1074F). The assay can be described thus: WRN (BV08) ADP-Glo assay. Format: biochemical. Conditions: class symbols A-E, read-out: ADP-Glo_hWRN_IC50. (In ADP-Glo the light output rises with the ADP produced.)
Sequence of WRN (BV08), human Werner helicase (Uniprot Q14191, amino acids 517-1235 with L1074F point mutation) (Q14191 other isoform, or with tags, fused parts or gaps L1074F (already in the parent)): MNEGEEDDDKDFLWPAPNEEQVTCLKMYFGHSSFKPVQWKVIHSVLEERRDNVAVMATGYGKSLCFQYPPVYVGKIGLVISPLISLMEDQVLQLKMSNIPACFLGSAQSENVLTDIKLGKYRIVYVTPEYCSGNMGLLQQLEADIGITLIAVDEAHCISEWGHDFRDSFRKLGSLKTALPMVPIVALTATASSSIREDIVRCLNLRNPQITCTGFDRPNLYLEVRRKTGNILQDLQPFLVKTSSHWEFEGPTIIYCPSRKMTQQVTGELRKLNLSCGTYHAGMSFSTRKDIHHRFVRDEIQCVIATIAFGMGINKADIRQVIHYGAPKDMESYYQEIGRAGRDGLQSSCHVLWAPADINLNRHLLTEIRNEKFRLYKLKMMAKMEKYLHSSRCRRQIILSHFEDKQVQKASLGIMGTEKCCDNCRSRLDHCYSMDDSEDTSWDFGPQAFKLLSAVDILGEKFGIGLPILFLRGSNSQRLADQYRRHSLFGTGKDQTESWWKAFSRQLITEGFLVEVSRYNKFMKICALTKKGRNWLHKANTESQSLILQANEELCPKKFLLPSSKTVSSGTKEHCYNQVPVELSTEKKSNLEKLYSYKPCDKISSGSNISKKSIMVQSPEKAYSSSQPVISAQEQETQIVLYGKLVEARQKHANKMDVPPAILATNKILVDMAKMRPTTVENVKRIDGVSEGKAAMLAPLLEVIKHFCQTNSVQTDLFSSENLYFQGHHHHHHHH
Assay [2] concerns p21 induction in HCT116 cells. Nature of the assay: p21 induction in HCT116 cells. Format: cell-based. The settings on record: HCT116 cells, 24 h compound incubation, read-out: P21_EC50. In a few lines:
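HCT116 cells, 2,000/well, treated 24 h at 37 °C with 11-point compound dilutions in duplicate. Fixed, then immunostained for p21 and GAPDH and read by near-IR imaging at 800/700 nm. Normalized to DMSO (low) and reference WRN inhibitor (high) controls; EC50 from non-linear regression.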

Take `CCc1c(N2CCN(C(=O)c3ncnc(C)c3O)[C@H]3CCC[C@H]32)c(=O)c2nc(N(C)C)cnc2n1CC(=O)Nc1ccc(C(F)(F)F)cc1Cl` (single isomer, unassigned) [I-208, N-(2-chloro-4-(trifluoromethyl)phenyl)-2-(2-(dimethylamino)-6-ethyl-7-(4-(5-hydroxy-6-methylpyrimidine-4-carbonyl)octahydro-1H-cyclopenta[b]pyrazin-1-yl)-8-oxopyrido[2,3-b]pyrazin-5(8H)-yl)acetamide]: in assay [1], the IC50 fell in the range of 100 to 500 nM. The EC50 in assay [2] (Homo sapiens, HCT-116, 24 h) was > 5000 nM.

Consider `CCc1c(N2CCN(C(=O)c3ncnc(C)c3O)[C@@H]3CCC[C@@H]32)c(=O)c2nc(N(C)C)cnc2n1CC(=O)Nc1ccc(C(F)(F)F)cc1Cl` (single isomer, unassigned) [I-209, N-(2-chloro-4-(trifluoromethyl)phenyl)-2-(2-(dimethylamino)-6-ethyl-7-(4-(5-hydroxy-6-methylpyrimidine-4-carbonyl)octahydro-1H-cyclopenta[b]pyrazin-1-yl)-8-oxopyrido[2,3-b]pyrazin-5(8H)-yl)acetamide], for which, in assay [1], the IC50 was in the range of 5 to 50 nM. Moreover, the EC50 in assay [2] (Homo sapiens, HCT-116, 24 h) was < 500 nM.

As for `CCc1c(N2CCN(C(=O)c3ncnc(C)c3O)[C@H]3CC[C@@H]32)c(=O)c2nc(N3CC[C@H]4C[C@H]43)cnc2n1CC(=O)Nc1ccc(C(F)(F)F)cc1Cl` (single isomer, unassigned) [I-219], the IC50 in assay [1] is ≤ 5 nM. In addition, in assay [2] (Homo sapiens, HCT-116, 24 h), the EC50 was < 500 nM.

For `CCc1c(N2CCN(C(=O)c3ncnc(C)c3O)[C@H]3CC[C@@H]32)c(=O)c2nc(N3CC[C@@H]4C[C@@H]43)cnc2n1CC(=O)Nc1ccc(C(F)(F)F)cc1Cl` (single isomer, unassigned) [I-220], the IC50 in assay [1] was ≤ 5 nM. Further, the EC50 in assay [2] (Homo sapiens, HCT-116, 24 h) is < 500 nM.

In the case of `CCc1c(N2CCN(C(=O)c3c(OC)ncc(C)c3O)C[C@@H]2C)c(=O)c2nc(N3CC[C@H]4C[C@H]43)cnc2n1CC(=O)Nc1ccc(C(F)(F)F)cc1Cl` (single isomer, unassigned) [I-231], in assay [1], the IC50 was in the range of 5 to 50 nM. Also, the EC50 in assay [2] (Homo sapiens, HCT-116, 24 h) is < 500 nM.

Turning to `CCc1c(N2CCN(C(=O)c3c(OC)ncc(C)c3O)C[C@@H]2C)c(=O)c2nc(N3CC[C@@H]4C[C@@H]43)cnc2n1CC(=O)Nc1ccc(C(F)(F)F)cc1Cl` (single isomer, unassigned) [I-232], the IC50 in assay [1] was in the range of 5 to 50 nM. In addition, the EC50 in assay [2] (Homo sapiens, HCT-116, 24 h) is < 500 nM.

In the case of `CCc1c(N2CCN(C(=O)c3ncnc(C)c3O)[C@H](C)[C@H]2C)c(=O)c2nc(N(C)C)cnc2n1CC(=O)Nc1ccc(C(F)(F)F)cc1Cl` (single isomer, unassigned) [I-233, N-(2-chloro-4-(trifluoromethyl)phenyl)-2-(2-(dimethylamino)-6-ethyl-7-(4-(5-hydroxy-6-methylpyrimidine-4-carbonyl)-2,3-dimethylpiperazin-1-yl)-8-oxopyrido[2,3-b]pyrazin-5(8H)-yl)acetamide], in assay [1], the IC50 is 5 to 50 nM. Besides, the EC50 in assay [2] (Homo sapiens, HCT-116, 24 h) is > 5000 nM.

On to `CCc1c(N2CCN(C(=O)c3ncnc(C)c3O)[C@@H](C)[C@@H]2C)c(=O)c2nc(N(C)C)cnc2n1CC(=O)Nc1ccc(C(F)(F)F)cc1Cl` (single isomer, unassigned) [I-234, N-(2-chloro-4-(trifluoromethyl)phenyl)-2-(2-(dimethylamino)-6-ethyl-7-(4-(5-hydroxy-6-methylpyrimidine-4-carbonyl)-2,3-dimethylpiperazin-1-yl)-8-oxopyrido[2,3-b]pyrazin-5(8H)-yl)acetamide], for which the IC50 in assay [1] fell in the range of 5 to 50 nM. Also, the EC50 in assay [2] (Homo sapiens, HCT-116, 24 h) was 500 to 2000 nM.

As to `CCc1c(N2CCN(C(=O)c3ncnc(C)c3O)CC2)c(=O)c2nc([C@H]3CC3(F)F)cnc2n1CC(=O)Nc1ccc(C(F)(F)F)cc1Cl` (single isomer, unassigned) [I-238], in assay [1], the IC50 fell in the range of 5 to 50 nM. For the same molecule, the EC50 in assay [2] (Homo sapiens, HCT-116, 24 h) is > 5000 nM.

As for `CCc1c(N2C[C@@H]3CC[C@H]2CN3C(=O)c2ncnc(C)c2O)c(=O)c2nc(N(C)C)cnc2n1CC(=O)Nc1ccc(C(F)(F)F)cc1Cl` (single isomer, unassigned) [I-247, N-(2-chloro-4-(trifluoromethyl)phenyl)-2-(2-(dimethylamino)-6-ethyl-7-(5-(5-hydroxy-6-methylpyrimidine-4-carbonyl)-2,5-diazabicyclo[2.2.2]octan-2-yl)-8-oxopyrido[2,3-b]pyrazin-5(8H)-yl)acetamide], the IC50 in assay [1] was 100 to 500 nM. Moreover, the EC50 in assay [2] (Homo sapiens, HCT-116, 24 h) was > 5000 nM.

Regarding `CCc1c(N2CCN(C(=O)c3c(OC)ncc(C)c3O)[C@@H]3CCC[C@@H]32)c(=O)c2nc(N(C)C)cnc2n1CC(=O)Nc1ccc(C(F)(F)F)cc1Cl` (single isomer, unassigned) [I-251, N-(2-chloro-4-(trifluoromethyl)phenyl)-2-(2-(dimethylamino)-6-ethyl-7-(4-(4-hydroxy-2-methoxy-5-methylnicotinoyl)octahydro-1H-cyclopenta[b]pyrazin-1-yl)-8-oxopyrido[2,3-b]pyrazin-5(8H)-yl)acetamide], the IC50 in assay [1] fell in the range of 5 to 50 nM. Besides, the EC50 in assay [2] (Homo sapiens, HCT-116, 24 h) was < 500 nM.

Consider `CCc1c(N2CCN(C(=O)c3c(OC)ncc(C)c3O)[C@H]3CCC[C@H]32)c(=O)c2nc(N(C)C)cnc2n1CC(=O)Nc1ccc(C(F)(F)F)cc1Cl` (single isomer, unassigned) [I-252, N-(2-chloro-4-(trifluoromethyl)phenyl)-2-(2-(dimethylamino)-6-ethyl-7-(4-(4-hydroxy-2-methoxy-5-methylnicotinoyl)octahydro-1H-cyclopenta[b]pyrazin-1-yl)-8-oxopyrido[2,3-b]pyrazin-5(8H)-yl)acetamide], for which the IC50 in assay [1] fell in the range of 100 to 500 nM. The EC50 in assay [2] (Homo sapiens, HCT-116, 24 h) lay in the range of 2000 to 5000 nM.

On to `CCc1c(N2C[C@H]3C[C@@H]2CN3C(=O)c2ncnc(C)c2O)c(=O)c2nc(N(C)C)cnc2n1CC(=O)Nc1ccc(C(F)(F)F)cc1Cl` (single isomer, unassigned) [I-256], for which the IC50 in assay [1] lay in the range of 100 to 500 nM. Also, in assay [2] (Homo sapiens, HCT-116, 24 h), the EC50 was > 5000 nM.

As for `CCc1c(N2C[C@H]3C[C@@H]2CN3C(=O)c2ncnc(C)c2O)c(=O)c2nc(N(C)C)cnc2n1CC(=O)Nc1ccc(C(F)(F)F)cc1Cl` (single isomer, unassigned) [I-257], the IC50 in assay [1] was > 500 nM. Moreover, in assay [2], the EC50 is > 5000 nM.

Turning to `CCc1c([C@@]23CCN(C(=O)c4ncnc(C)c4O)C[C@@H]2C3)c(=O)c2nc(N(C)C)cnc2n1CC(=O)Nc1ccc(C(F)(F)F)cc1Cl` (single isomer, unassigned) [I-276, N-(2-chloro-4-(trifluoromethyl)phenyl)-2-(2-(dimethylamino)-6-ethyl-7-(3-(5-hydroxy-6-methylpyrimidine-4-carbonyl)-3-azabicyclo[4.1.0]heptan-6-yl)-8-oxopyrido[2,3-b]pyrazin-5(8H)-yl)acetamide], the IC50 in assay [1] was in the range of 5 to 50 nM. Also, the EC50 in assay [2] (Homo sapiens, HCT-116, 24 h) fell in the range of 500 to 2000 nM.

Take `CCc1c([C@]23CCN(C(=O)c4ncnc(C)c4O)C[C@H]2C3)c(=O)c2nc(N(C)C)cnc2n1CC(=O)Nc1ccc(C(F)(F)F)cc1Cl` (single isomer, unassigned) [I-277, N-(2-chloro-4-(trifluoromethyl)phenyl)-2-(2-(dimethylamino)-6-ethyl-7-(3-(5-hydroxy-6-methylpyrimidine-4-carbonyl)-3-azabicyclo[4.1.0]heptan-6-yl)-8-oxopyrido[2,3-b]pyrazin-5(8H)-yl)acetamide]: in assay [1], the IC50 was 5 to 50 nM. In addition, in assay [2] (Homo sapiens, HCT-116, 24 h), the EC50 lay in the range of 500 to 2000 nM.

Regarding `CCc1c(N2CCN(C(=O)c3ncnc(C)c3O)C3COCC32)c(=O)c2nc(N(C)C)cnc2n1CC(=O)Nc1ccc(C(F)(F)F)cc1Cl` (single isomer, unassigned) [I-278, N-(2-chloro-4-(trifluoromethyl)phenyl)-2-(2-(dimethylamino)-6-ethyl-7-(4-(5-hydroxy-6-methylpyrimidine-4-carbonyl)hexahydrofuro[3,4-b]pyrazin-1(2H)-yl)-8-oxopyrido[2,3-b]pyrazin-5(8H)-yl)acetamide], the IC50 in assay [1] was in the range of 5 to 50 nM. For the same molecule, the EC50 in assay [2] was 2000 to 5000 nM.

Consider `CCc1c(N2CCN(C(=O)c3ncnc(C)c3O)C3COCC32)c(=O)c2nc(N(C)C)cnc2n1CC(=O)Nc1ccc(C(F)(F)F)cc1Cl` (single isomer, unassigned) [I-279, N-(2-chloro-4-(trifluoromethyl)phenyl)-2-(2-(dimethylamino)-6-ethyl-7-(4-(5-hydroxy-6-methylpyrimidine-4-carbonyl)hexahydrofuro[3,4-b]pyrazin-1(2H)-yl)-8-oxopyrido[2,3-b]pyrazin-5(8H)-yl)acetamide], for which the IC50 in assay [1] lay within 100 to 500 nM. Further, in assay [2], the EC50 was > 5000 nM.

For `CCc1c(N2CCN(C(=O)c3ncnc(C)c3O)C3COCC32)c(=O)c2nc(N(C)C)cnc2n1CC(=O)Nc1ccc(C(F)(F)F)cc1Cl` (single isomer, unassigned) [I-294, N-(2-chloro-4-(trifluoromethyl)phenyl)-2-(2-(dimethylamino)-6-ethyl-7-(4-(5-hydroxy-6-methylpyrimidine-4-carbonyl)hexahydrofuro[3,4-b]pyrazin-1(2H)-yl)-8-oxopyrido[2,3-b]pyrazin-5(8H)-yl)acetamide], the IC50 in assay [1] was > 500 nM. Also, the EC50 in assay [2] is > 5000 nM.

`CCc1c(N2CCN(C(=O)c3ncnc(C)c3O)[C@H]3CC(F)(F)C[C@@H]32)c(=O)c2nc(N(C)C)cnc2n1CC(=O)Nc1ccc(C(F)(F)F)cc1Cl` (single isomer, unassigned) [I-296, N-(2-chloro-4-(trifluoromethyl)phenyl)-2-(7-(6,6-difluoro-4-(5-hydroxy-6-methylpyrimidine-4-carbonyl)octahydro-1H-cyclopenta[b]pyrazin-1-yl)-2-(dimethylamino)-6-ethyl-8-oxopyrido[2,3-b]pyrazin-5(8H)-yl)acetamide]: the IC50 in assay [1] fell in the range of 5 to 50 nM. In addition, the EC50 in assay [2] (Homo sapiens, HCT-116, 24 h) is 500 to 2000 nM.
